Source: ChEMBL document CHEMBL1140776, “Parasiticidal 2-alkoxy- and 2-aryloxyiminoalkyl trifluoromethanesulfonanilides” (2008)

Key:
Type in all cases: functional
Ctenocephalides felis = test: Parasiticidal activity against Ctenocephalides felis assessed as mortality after 24 hrs by cat flea assay; parameters: concentration or dose not given beside the values
Rhipicephalus sanguineus = test: Parasiticidal activity against Rhipicephalus sanguineus assessed as mortality after 24 hrs by brown dog tick assay; parameters: concentration or dose not given beside the values
Haemonchus contortus = test: Parasiticidal activity against Haemonchus contortus by larval assay

| SMILES | Activity (Ctenocephalides felis) [%] | Activity (Rhipicephalus sanguineus) [%] | LD99 (Haemonchus contortus) [µM] |
| --- | --- | --- | --- |
| CC/C(=N\Oc1ccc(Cl)cc1)c1ccc(C(F)(F)F)cc1NS(=O)(=O)C(F)(F)F | 100 | 17 | – |
| C/C(=N\OC1CCCCC1)c1ccc(C(F)(F)F)cc1NS(=O)(=O)C(F)(F)F | 4 | – | – |
| C/C(=N\OCC1CCCCC1)c1cc(Cl)ccc1NS(=O)(=O)C(F)(F)F | 96 | 100 | – |
| C/C(=N\OC(C)C)c1cc(Cl)ccc1NS(=O)(=O)C(F)(F)F | 100 | 95 | – |
| CCC/C(=N\Oc1ccc(F)cc1)c1cc(Cl)ccc1NS(=O)(=O)C(F)(F)F | 36 | – | – |
| O=S(=O)(Nc1ccc(Cl)cc1/C=N/OCc1ccc(Cl)c(Cl)c1)C(F)(F)F | 42 | – | 1.4 |
| C/C(=N\Oc1ccc(Cl)c(Cl)c1)c1cc(Cl)ccc1NS(=O)(=O)C(F)(F)F | 71 | – | 1.6 |
| CC/C(=N\OCC1CCCC1)c1cc(Cl)ccc1NS(=O)(=O)C(F)(F)F | 97 | 90 | – |
| CC/C(=N\OC(C)C)c1cc(Cl)ccc1NS(=O)(=O)C(F)(F)F | 100 | 100 | – |
| O=S(=O)(Nc1ccc(Cl)cc1/C(=N/Oc1ccc(F)cc1)c1ccccc1)C(F)(F)F | 21 | – | – |
| O=S(=O)(Nc1ccc(Cl)cc1/C(=N/OC1CCCCC1)c1ccccc1)C(F)(F)F | 12 | 45 | – |
| C=CCO/N=C(\C)c1cc(Cl)ccc1NS(=O)(=O)C(F)(F)F | 100 | 100 | – |
| CCC/C(=N\OCc1ccc(Cl)cc1Cl)c1cc(Cl)ccc1NS(=O)(=O)C(F)(F)F | 88 | – | 3.6 |
| CC/C(=N\OCc1ccc(Cl)c(Cl)c1)c1cc(Cl)ccc1NS(=O)(=O)C(F)(F)F | 100 | – | 1.3 |
| CC/C(=N\Oc1cccc(Cl)c1)c1cc(Cl)ccc1NS(=O)(=O)C(F)(F)F | 100 | – | 3.6 |
| O=S(=O)(Nc1ccc(Cl)cc1/C(=N/OCC1CCCCC1)c1ccccc1)C(F)(F)F | 8 | 52 | – |

| SMILES | Activity (Ctenocephalides felis) [%] | Activity (Rhipicephalus sanguineus) [%] | LD99 (Haemonchus contortus) [µM] |
| --- | --- | --- | --- |
| CCO/N=C(\C)c1cccc(OC)c1NS(=O)(=O)C(F)(F)F | 45 | – | >15 |
| C/C(=N\Oc1ccc(Br)cc1)c1cc(Cl)ccc1NS(=O)(=O)C(F)(F)F | 91 | – | 0.87 |
| CC/C(=N\Oc1ccc(Br)cc1)c1cc(Cl)ccc1NS(=O)(=O)C(F)(F)F | 78 | – | 3.7 |
| C/C(=N\OCc1ccc(Cl)cc1)c1ccc(C(F)(F)F)cc1NS(=O)(=O)C(F)(F)F | 100 | 27 | – |
| CC/C(=N\OCc1ccc(Cl)cc1)c1ccc(C(F)(F)F)cc1NS(=O)(=O)C(F)(F)F | 100 | 25 | – |
| C/C(=N\Oc1ccc(Cl)cc1)c1cc(Cl)ccc1NS(=O)(=O)C(F)(F)F | 90 | – | 1 |
| CCC/C(=N\OC1CCCCC1)c1cc(Cl)ccc1NS(=O)(=O)C(F)(F)F | 43 | – | – |
| C/C(=N\Oc1cccc(C(F)(F)F)c1)c1cc(Cl)ccc1NS(=O)(=O)C(F)(F)F | 96 | – | 0.83 |
| CC/C(=N\OCCOC)c1cc(Cl)ccc1NS(=O)(=O)C(F)(F)F | 100 | 95 | – |
| CC/C(=N\OCc1cccc(Cl)c1Cl)c1cc(Cl)ccc1NS(=O)(=O)C(F)(F)F | 63 | – | 0.63 |
| C/C(=N\OC1CCCC1)c1cc(Cl)ccc1NS(=O)(=O)C(F)(F)F | 100 | 100 | – |
| CC/C(=N\OCC(F)(F)F)c1cc(Cl)ccc1NS(=O)(=O)C(F)(F)F | 100 | 80 | – |
| c1ccc([C@H]2CN3CCSC3=N2)cc1 [LEVAMISOLE] | – | – | 0.71 |
| CCC/C(=N\OCC1CCCCC1)c1cc(Cl)ccc1NS(=O)(=O)C(F)(F)F | 70 | – | 11 |
| CC/C(=N\Oc1cccc(C(F)(F)F)c1)c1cc(Cl)ccc1NS(=O)(=O)C(F)(F)F | 71 | – | 2 |
